Experimental data from ChEMBL document CHEMBL1139754, “Insect pest control agents: Novel chiral butanoate esters (juvenogens)” (Bioorg Med Chem, 2007).

Test system: Prorhinotermes
Test: Juvenilizing activity against termite Prorhinotermes simplex at 0.5 mg m/L
Format: functional

SMILES	Activity
CCCC(=O)O[C@H]1CCCC[C@H]1Cc1ccc(OCCNC(=O)OCC)cc1	65%
CCCC(=O)O[C@H]1CCCC[C@@H]1Cc1ccc(OCCNC(=O)OCC)cc1	65%
CCCC(=O)O[C@@H]1CCCC[C@@H]1Cc1ccc(OCCNC(=O)OCC)cc1	65%
CCCC(=O)O[C@@H]1CCCC[C@H]1Cc1ccc(OCCNC(=O)OCC)cc1	65%
